The values that follow come from BindingDB's records for doi:10.1016/s1074-5521(98)90632-9 (Merck Research Laboratories, 1998).

SMILES strings stand for the structures. Where only a bound is given, the exact number is not on record here.

One experiment has as its target T1, Beta-lactamase (Bacteroides fragilis, UniProt Q8KZP2).
T1 sequence (Q8KZP2 whole entry): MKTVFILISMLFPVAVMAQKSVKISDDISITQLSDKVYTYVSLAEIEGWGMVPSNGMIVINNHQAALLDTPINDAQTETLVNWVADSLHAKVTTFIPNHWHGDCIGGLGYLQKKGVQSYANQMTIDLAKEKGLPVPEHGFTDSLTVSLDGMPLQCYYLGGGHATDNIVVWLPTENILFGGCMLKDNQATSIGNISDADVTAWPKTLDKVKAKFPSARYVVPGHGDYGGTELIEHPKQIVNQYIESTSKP
As to the kind of experiment: Metallo-Beta-Lactamase Assay. Conditions: pH 7; 37 °C. From the text: Enzyme inhibition assay by biphenyl tetrazoles (BPTS)using metallo-beta-lactamase.

A further experiment addresses T2, Dipeptidase 1 (Homo sapiens, UniProt P16444).
T2 sequence (P16444 whole entry): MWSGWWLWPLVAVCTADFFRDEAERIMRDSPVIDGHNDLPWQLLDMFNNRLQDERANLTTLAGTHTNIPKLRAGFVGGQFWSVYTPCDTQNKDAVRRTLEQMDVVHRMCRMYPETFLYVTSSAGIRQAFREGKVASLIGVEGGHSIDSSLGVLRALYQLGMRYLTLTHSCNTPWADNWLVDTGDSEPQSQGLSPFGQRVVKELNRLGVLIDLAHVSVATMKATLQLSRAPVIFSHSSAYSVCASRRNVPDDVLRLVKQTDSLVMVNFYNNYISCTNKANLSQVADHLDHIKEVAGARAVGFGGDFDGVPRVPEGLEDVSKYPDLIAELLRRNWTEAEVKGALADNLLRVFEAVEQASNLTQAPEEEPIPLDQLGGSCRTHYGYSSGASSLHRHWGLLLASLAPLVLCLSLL
The experiment is described as follows: Dehydropeptidase I Assay. Conditions: pH 7; 37 °C. From the text:
Enzyme inhibition assay by biphenyl tetrazoles (BPTS)using dehydropeptidase 1 (DPH-1).

One may read the IC50 as the concentration at which inhibition is half-maximal. Low values mean higher potency, high ones lower potency. As to `CCCCc1nc2ccc(O)cc2c(=O)n1Cc1ccc(-c2ccccc2-c2nnn[nH]2)cc1`, the IC50 was 1.9 µM against Beta-lactamase and > 100 µM on Dipeptidase 1.

Take `c1ccc(-c2ccccc2-c2nn[nH]n2)cc1` [L-809,022]: the IC50 at Beta-lactamase was 860 µM; against Dipeptidase 1 it was > 1000 µM.

Turning to `CCCc1nc(CC)c(C=O)n1Cc1ccc(-c2ccccc2-c2nnn[nH]2)cc1`, the values for the IC50 against Beta-lactamase and at Dipeptidase 1 were 7 µM and 190 µM, respectively.

For `Oc1ccc2c3c(n(Cc4ccc(-c5ccccc5-c5nnn[nH]5)cc4)c2c1)C=CCC3` [L-809,370], the IC50 against Beta-lactamase was 6 µM; against Dipeptidase 1, > 100 µM.

On to `Cc1nc2ccccc2n1Cc1ccc(-c2ccccc2-c2nnn[nH]2)cc1` [L-809-559], for which the IC50 at Beta-lactamase is 4 µM; at Dipeptidase 1 it was > 250 µM.

As for `CCCc1nc2ccc(Cl)nc2n1Cc1ccc(-c2ccccc2-c2nnn[nH]2)cc1` [L-158-678], the figures for the IC50 against Beta-lactamase and on Dipeptidase 1 were 3.5 µM and 240 µM, respectively.

As to `CCCCc1nc2c(c(=O)n1Cc1ccc(-c3ccccc3-c3nnn[nH]3)cc1)SCC2` [L-159,906], the IC50 against Beta-lactamase was 0.4 µM; against Dipeptidase 1, > 100 µM.

`c1ccc(-c2nnn[nH]2)c(-c2ccc(Cn3cnc4ccccc43)cc2)c1` [L-808,509]: the values for the IC50 at Beta-lactamase and on Dipeptidase 1 were 110 µM and > 500 µM, respectively.

For `Cc1ccc(-c2ccccc2-c2nnn[nH]2)cc1` [L-158,507], the IC50 at Beta-lactamase was 160 µM; against Dipeptidase 1, > 1000 µM.

Regarding `C1=Cc2c(c3ccccc3n2Cc2ccc(-c3ccccc3-c3nnn[nH]3)cc2)CC1` [L-161,189], the IC50 against Beta-lactamase came out at 0.3 µM; at Dipeptidase 1, 120 µM.

In the case of `Cc1ccnc2c1nc(C(C)C)n2Cc1ccc(-c2ccccc2-c2nnn[nH]2)cc1` [L-158-817], the IC50 is 1.8 µM at Beta-lactamase and > 100 µM against Dipeptidase 1.

With `c1ccc(-c2nnn[nH]2)c(-c2ccc(Cn3cnc4cccnc43)cc2)c1` [L-809-558], the IC50 on Beta-lactamase is 42 µM; at Dipeptidase 1, > 250 µM.

Turning to `C1=Cc2[nH]c3cc(OCc4ccc(-c5ccccc5-c5nnn[nH]5)cc4)ccc3c2CC1` [L-809,339], the IC50 on Beta-lactamase was 42 µM; at Dipeptidase 1 it was > 100 µM.
